Experimental data published in US20120035125A1, “FULVIC ACID IN COMBINATION WITH FLUCONAZOLE OR AMPHOTERICIN B FOR THE TREATMENT OF FUNGAL INFECTIONS” (Natracine UK Limited, priority 2009, published 2012).
Values after ≈ are worked out from the molar mass of the structure shown.

Columns and labels:
Aspergillus = conditions: stated to be toxic to the subject; cited from earlier work
Fusarium solani = experiment: In vitro susceptibility (MIC, broth microdilution), CHD-FA and amphotericin B; format: cell-based
Description: (§1) Each culture was grown on Sabouraud agar at 37° C. for 10 days to ensure purity and to allow spores to mature
(§2) RPMI-1640 (Sigma, Dorset, UK) supplemented to 2% glucose (Sigma), buffered with morpholinopropanesulfonic acid (MOPS), (Sigma) and adjusted to pH 7.0 was used as recommended in the Clinical Laboratory Standards M38A document (Reference method for broth dilution antifungal susceptibility testing of conidium-forming filamentous fungi. Approved standard. Document M38-A 2002a. NCCLS, Wayne, Pa. 2002. NCCLS, Wayne, Pa., USA).
(§3) a) All fungi were cultured in ambient air at 35-37° C. on recovery medium (Sabouraud dextrose agar) for 8-10 days before testing.
(§4) b) Inoculum suspensions were prepared from day 8 to 10 day cultures grown on Sabouraud dextrose agar at 37° C. in vented tissue culture flasks to avoid crosscontamination. Spores were harvested by flooding the surface of the growth with 25 ml of sterile phosphate buffered saline plus 0.05% Tween 80. The spore count was adjusted using a counting chamber.
(§5) c) The inoculum was completely suspended by vigorous shaking on a vortex mixer for 15 s. […] Drug-free and cell-free controls were included. (The RPMI medium used in the plates was prepared at either 2× or 4×the final strength to allow for dilution once the inoculum and diluted CHD-FA was added).
(§6) Sterile plastic, disposable, microtitration plates with 96 flat-bottom wells were used.
(§7) a) Column 1 of the microtitration tray was filled with 100 μL of sterile water containing four times the final drug concentration (16 mg/L amphotericin B).
(§8) b) Columns 2-12 were filled with 50 μL of distilled water
(§9) c) 50 μL amounts were taken from wells in column 1 and diluted two-fold by transferring them to column 2 with a multichannel pipette (±2% coefficient of variation). 50 μL samples were then removed from column 2 and transferred to column 3, and so on through to column 10. The last 50 μL of diluted drug is then discarded. Thus, each well in columns 1-10 will contain 50 μL of water containing four times the final antifungal drug concentrations.
(§10) Stock solutions of CHD-FA were produced containing 4%, 2%, 1%, 0.5% and 0.25% of the native compound.
(§11) 100 μL of the diluted CHD-FA was added to microtitration trays in so that row A contains a final dilution of 2% row B, 1%, row C 0.5%, row D 0.25% row E 0.125% and row F diluent only.
(§12) 50 μL of the diluted spore suspension in 4×RPMI was added to all wells. This produces a well containing 200 μL final volume (made up of 50 μL diluted antifungal, 100 μL diluted CHD-FA or diluent, 50 μL of 4×RPMI containing fungal spores)
(§13) All plates were incubated at 37° C. in air in a darkened incubator.
(§14) Plates were read visually with the endpoint taken as the lowest concentration of drug that inhibited growth by 50% of that of the drug free control.

Aspergillus fumigatus = experiment: as above; format: cell-based; conditions: for MIC: Aspergillus fumigatus
Description: as §1, §2, §3, §4, §5, §6, §7, §8, §9, §10, §11, §12, §13, §14

Absidia corymbifera = experiment: as above; format: cell-based; conditions: Lichtheimia corymbifera
Description: as §1, §2, §3, §4, §5, §6, §7, §8, §9, §10, §11, §12, §13, §14

Aspergillus terreus = experiment: as above; format: cell-based; conditions: for MIC: Aspergillus terreus
Description: as §1, §2, §3, §4, §5, §6, §7, §8, §9, §10, §11, §12, §13, §14

Aspergillus flavus = experiment: as above; format: cell-based; conditions: for MIC: Aspergillus flavus
Description: as §1, §2, §3, §4, §5, §6, §7, §8, §9, §10, §11, §12, §13, §14

Amphotericin MIC (Fusarium solani; Fusarium isolate 2): 2.0 µg/mL | MIC (Fusarium solani; Fusarium solani, Fusarium isolate 1): 2 µg/mL (≈ 2.16 µM) | Amphotericin MIC (Aspergillus fumigatus; A. fumigates strain 1, CHD-FA Dilution 0.125): 0.06 µg/mL | Amphotericin MIC (Aspergillus fumigatus; A. fumigates strain 1, CHD-FA Dilution 0.25): No Growth | Amphotericin MIC (Aspergillus fumigatus; A. fumigates strain 1, CHD-FA Dilution 0.5): No Growth | Amphotericin MIC (Aspergillus fumigatus; A. fumigates strain 2, CHD-FA Dilution 0.125): 0.125 µg/mL | Amphotericin MIC (Aspergillus fumigatus; A. fumigates strain 2, CHD-FA Dilution 0.25): No Growth | Amphotericin MIC (Aspergillus fumigatus; A. fumigates strain 2, CHD-FA Dilution 0.5): No Growth | MIC (Aspergillus fumigatus; A. fumigatus isolate 1): 0.5 µg/mL (≈ 0.541 µM) | MIC (Aspergillus fumigatus; A. fumigatus isolate 2): 0.25 µg/mL (≈ 0.271 µM) | MIC (Absidia corymbifera; Absidia isolate 1): 0.25 µg/mL (≈ 0.271 µM) | MIC (Absidia corymbifera; Absidia isolate 2): 0.06 µg/mL (≈ 0.0649 µM) | Amphotericin MIC (Aspergillus terreus; A. terreus strain 1, CHD-FA Dilution 0.125): 0.25 µg/mL | Amphotericin MIC (Aspergillus terreus; A. terreus strain 1, CHD-FA Dilution 0.25): No Growth | Amphotericin MIC (Aspergillus terreus; A. terreus strain 1, CHD-FA Dilution 0.5): No Growth | Amphotericin MIC (Aspergillus terreus; A. terreus strain 2, CHD-FA Dilution 0.125): 0.125 µg/mL | Amphotericin MIC (Aspergillus terreus; A. terreus strain 2, CHD-FA Dilution 0.25): No Growth | Amphotericin MIC (Aspergillus terreus; A. terreus strain 2, CHD-FA Dilution 0.5): No Growth | MIC (Aspergillus terreus; A. terreus isolate 1): 0.5 µg/mL (≈ 0.541 µM) | MIC (Aspergillus terreus; A. terreus isolate 2): 1 µg/mL (≈ 1.08 µM) | Amphotericin MIC (Aspergillus flavus; A. flavus strain 1, CHD-FA Dilution 0.125): > 4 µg/mL | Amphotericin MIC (Aspergillus flavus; A. flavus strain 1, CHD-FA Dilution 0.25): No Growth | Amphotericin MIC (Aspergillus flavus; A. flavus strain 1, CHD-FA Dilution 0.5): No Growth | Amphotericin MIC (Aspergillus flavus; A. flavus strain 2, CHD-FA Dilution 0.125): 0.25 µg/mL | Amphotericin MIC (Aspergillus flavus; A. flavus strain 2, CHD-FA Dilution 0.25): No Growth | Amphotericin MIC (Aspergillus flavus; A. flavus strain 2, CHD-FA Dilution 0.5): No Growth | MIC (Aspergillus flavus; A. flavus isolate 1): 4 µg/mL (≈ 4.33 µM) | MIC (Aspergillus flavus; A. flavus isolate 2): 0.5 µg/mL (≈ 0.541 µM)
Structure (SMILES): C[C@@H]1[C@H](O)[C@@H](C)/C=C/C=C/C=C/C=C/C=C/C=C/C=C/[C@H](O[C@@H]2O[C@H](C)[C@@H](O)[C@H](N)[C@@H]2O)C[C@@H]2O[C@](O)(C[C@@H](O)C[C@@H](O)[C@H](O)CC[C@@H](O)C[C@@H](O)CC(=O)O[C@H]1C)C[C@H](O)[C@H]2C(=O)O [Amphotericin B]
dose required to inhibit Aspergillus (Aspergillus): 3 mg/L
